Assay results taken from ChEMBL document CHEMBL5576127, “New CDDO Arylboronate Ester Derivatives with High Selectivity and Low Toxicity” (J Med Chem, 2024).
The source made the active and inactive calls. The rule behind the calls is not given here.

Tests used:
[1] = system: BGC-823; experiment: Induction of apoptosis in human BGC-823 cells assessed as late apoptotic cells at 0.25 uM incubated for 48 hrs by Annexin V-FITC/PI staining based flow cytometric analysis ( Rvb = 5.61 %); type: functional
[2] = Clearance in rat at 10 mg/kg, ip measured after 24 hrs by LC-MS/MS analysis; type: ADME, organism-based; conditions: in vivo
[3] = system: BGC-823; experiment: Induction of ROS generation in human BGC-823 cells assessed as cells with green fluorescence at 0.5 uM incubated for 24 hrs by DCFH-DA staining based analysis relative to control; type: functional
[4] = system: BGC-823; experiment: Induction of apoptosis in human BGC-823 cells assessed as early apoptotic cells at 0.5 uM incubated for 48 hrs by Annexin V-FITC/PI staining based flow cytometric analysis ( Rvb = 1.68 %); type: functional
[5] = system: BGC-823; experiment: Induction of apoptosis in human BGC-823 cells assessed as early apoptotic cells at 1 uM incubated for 48 hrs by Annexin V-FITC/PI staining based flow cytometric analysis ( Rvb = 1.68 %); type: functional
[6] = system: Cell membrane; experiment: Induction of mitochondrial membrane potential loss in human BGC-823 cells assessed as increase in number of cells with J-monomers by measuring green fluorescence at 1 uM incubated for 24 hrs in presence of NAC by JC-1 staining based flow cytometric analysis (reference value: 0.33%); type: cell membranes
[7] = Apparent volume of distribution in rat at 10 mg/kg, ip measured after 24 hrs by LC-MS/MS analysis; type: ADME, organism-based; conditions: in vivo
[8] = AUC (0 to infinity) in rat at 10 mg/kg, ip measured after 24 hrs by LC-MS/MS analysis; type: ADME, organism-based; conditions: in vivo
[9] = system: BGC-823; experiment: Induction of ROS generation in human BGC-823 cells assessed as cells with green fluorescence at 0.25 uM incubated for 24 hrs by DCFH-DA staining based analysis relative to control; type: functional
[10] = AUC (0 to t) in rat at 10 mg/kg, iv measured after 24 hrs by LC-MS/MS analysis; type: ADME, organism-based; conditions: in vivo
[11] = system: Cell membrane; experiment: Induction of mitochondrial membrane potential loss in human BGC-823 cells assessed as increase in number of cells with J-monomers by measuring green fluorescence at 1 uM incubated for 24 hrs by JC-1 staining based flow cytometric analysis (reference value: 0.33%); type: cell membranes
[12] = system: BGC-823; experiment: Induction of apoptosis in human BGC-823 cells assessed as necrotic cells at 0.25 uM incubated for 48 hrs by Annexin V-FITC/PI staining based flow cytometric analysis ( Rvb = 1.79 %); type: functional
[13] = system: BGC-823; experiment: Induction of apoptosis in human BGC-823 cells assessed as late apoptotic cells at 0.5 uM incubated for 48 hrs by Annexin V-FITC/PI staining based flow cytometric analysis ( Rvb = 5.61 %); type: functional
[14] = system: Cell membrane; experiment: Induction of mitochondrial membrane potential loss in human BGC-823 cells assessed as increase in number of cells with J-monomers by measuring green fluorescence at 0.25 uM incubated for 24 hrs by JC-1 staining based flow cytometric analysis (reference value: 0.33%); type: cell membranes
[15] = system: BGC-823; experiment: Induction of apoptosis in human BGC-823 cells assessed as early apoptotic cells at 0.25 uM incubated for 48 hrs by Annexin V-FITC/PI staining based flow cytometric analysis ( Rvb = 1.68 %); type: functional
[16] = system: Cell membrane; experiment: Induction of mitochondrial membrane potential loss in human BGC-823 cells assessed as decrease in number of cells with J-aggregates by measuring red fluorescence at 0.5 uM incubated for 24 hrs by JC-1 staining based flow cytometric analysis (reference value: 99.7 %); type: cell membranes; set-up: scale not given: the % may be the effect or the level left
[17] = system: BGC-823; experiment: Induction of ROS generation in human BGC-823 cells assessed as cells with green fluorescence at 1 uM incubated for 24 hrs by DCFH-DA staining based analysis relative to control; type: functional
[18] = AUC (0 to infinity) in rat at 10 mg/kg, iv measured after 24 hrs by LC-MS/MS analysis; type: ADME, organism-based; conditions: in vivo
[19] = system: BGC-823; experiment: Induction of apoptosis in human BGC-823 cells assessed as necrotic cells at 0.5 uM incubated for 48 hrs by Annexin V-FITC/PI staining based flow cytometric analysis ( Rvb = 1.79 %); type: functional
[20] = Cmax in rat at 10 mg/kg, iv measured after 24 hrs by LC-MS/MS analysis; type: ADME, organism-based; conditions: in vivo
[21] = AUC (0 to t) in rat at 10 mg/kg, ip measured after 24 hrs by LC-MS/MS analysis; type: ADME, organism-based; conditions: in vivo
[22] = system: Cell membrane; experiment: Induction of mitochondrial membrane potential loss in human BGC-823 cells assessed as decrease in number of cells with J-aggregates by measuring red fluorescence at 0.25 uM incubated for 24 hrs by JC-1 staining based flow cytometric analysis (reference value: 99.7 %); type: cell membranes; set-up: scale not given: the % may be the effect or the level left
[23] = system: BGC-823; experiment: Induction of apoptosis in human BGC-823 cells assessed as late apoptotic cells at 1 uM incubated for 48 hrs by Annexin V-FITC/PI staining based flow cytometric analysis ( Rvb = 5.61 %); type: functional
[24] = system: Cell membrane; experiment: Induction of mitochondrial membrane potential loss in human BGC-823 cells assessed as increase in number of cells with J-monomers by measuring green fluorescence at 0.5 uM incubated for 24 hrs by JC-1 staining based flow cytometric analysis (reference value: 0.33%); type: cell membranes
[25] = Clearance in rat at 10 mg/kg, iv measured after 24 hrs by LC-MS/MS analysis; type: ADME, organism-based; conditions: in vivo
[26] = system: BGC-823; experiment: Cell cycle arrest in human BGC-823 cells assessed as accumulation of cells at G2/M phase incubated for 24 hrs by PI staining based flow cytometric analysis; type: functional
[27] = system: Cell membrane; experiment: Induction of mitochondrial membrane potential loss in human BGC-823 cells assessed as decrease in number of cells with J-aggregates by measuring red fluorescence at 1 uM incubated for 24 hrs by JC-1 staining based flow cytometric analysis (reference value: 99.7 %); type: cell membranes; set-up: scale not given: the % may be the effect or the level left
[28] = GSH reactivity in human BGC-823 cells assessed as GSSG/GSH ratio at 0.4 uM incubated for 24 hrs by microplate reader analysis (reference value: 0.34); type: ADME, cell-based; conditions: bgc-823, 24 h
[29] = Half-life in rat at 10 mg/kg, iv measured after 24 hrs by LC-MS/MS analysis; type: ADME, organism-based; conditions: in vivo
[30] = system: BGC-823; experiment: Induction of apoptosis in human BGC-823 cells assessed as viable cells at 1 uM incubated for 48 hrs by Annexin V-FITC/PI staining based flow cytometric analysis ( Rvb = 90.09 %); type: functional; conditions: read-out: Activity
[31] = Binding affinity to DTT in PBS assessed as UV peak appearance at 288 nm at 360 uM by UV-Vis spectra analysis
[32] = system: Cell membrane; experiment: Induction of mitochondrial membrane potential loss in human BGC-823 cells assessed as decrease in number of cells with J-aggregates by measuring red fluorescence at 1 uM incubated for 24 hrs in presence of NAC by JC-1 staining based flow cytometric analysis (reference value: 99.7 %); type: cell membranes; set-up: scale not given: the % may be the effect or the level left
[33] = system: BGC-823; experiment: Induction of apoptosis in human BGC-823 cells assessed as necrotic cells at 1 uM incubated for 48 hrs by Annexin V-FITC/PI staining based flow cytometric analysis ( Rvb = 1.79 %); type: functional
[34] = system: BGC-823; experiment: Induction of apoptosis in human BGC-823 cells assessed as viable cells at 0.5 uM incubated for 48 hrs by Annexin V-FITC/PI staining based flow cytometric analysis ( Rvb = 90.09 %); type: functional; conditions: read-out: Activity
[35] = system: BGC-823; experiment: Induction of apoptosis in human BGC-823 cells assessed as viable cells at 0.25 uM incubated for 48 hrs by Annexin V-FITC/PI staining based flow cytometric analysis ( Rvb = 90.09 %); type: functional; conditions: read-out: Activity
[36] = Half-life in rat at 10 mg/kg, ip measured after 24 hrs by LC-MS/MS analysis; type: ADME, organism-based; conditions: in vivo
[37] = Cmax in rat at 10 mg/kg, ip measured after 24 hrs by LC-MS/MS analysis; type: ADME, organism-based; conditions: in vivo
[38] = system: BGC-823; experiment: Induction of ROS generation in human BGC-823 cells assessed as cells with green fluorescence at 0.25 uM incubated for 24 hrs in presence of NAC by DCFH-DA staining based analysis relative to control; type: functional
[39] = Apparent volume of distribution in rat at 10 mg/kg, iv measured after 24 hrs by LC-MS/MS analysis; type: ADME, organism-based; conditions: in vivo, read-out: Vz

SMILES: CC1(C)CC[C@]2(C(=O)OCCCCOC(=O)c3ccc(O)cc3)CC[C@]3(C)[C@H](C(=O)C=C4[C@@]5(C)C=C(C#N)C(=O)C(C)(C)[C@@H]5CC[C@]43C)[C@@H]2C1
- Activity [1]: 5.9%
- CL [2]: 14.4 mL/min/kg
- Activity [3]: 61.6%
- Activity [4]: 3.44%
- Activity [5]: 14%
- Activity [6]: 3.14%
- Vz [7]: 20.63 L/kg
- AUC [8]: 1163 ng·h/mL
- Activity [9]: 23.2%
- AUC(0-t) at 24 h [10]: 20000 ng·h/mL
- Activity [11]: 77.4%
- Activity [12]: 0.49%
- Activity [13]: 16.1%
- Activity [14]: 2.06%
- Activity [15]: 3.01%
- Activity [16]: 84.2%
- Activity [17]: 95.3%
- AUC(0-inf) [18]: 20200 ng·h/mL
- Activity [19]: 5.79%
- Cmax [20]: 19000 ng/mL
- AUCt [21]: 7310 ng·h/mL
- Activity [22]: 97.8%
- Activity [23]: 30.4%
- Activity [24]: 15.4%
- clearance [25]: 8.4 mL/min/kg
- Activity [26]: Dose-Dependent Effect
- Activity [27]: 24.5%
- Ratio [28]: 1.08
- half-life [29]: 5.4 h
- viability at 1 µM [30]: 50.1%
- Activity [31]: Active
- Activity [32]: 96.7%
- Activity [33]: 5.52%
- viability at 0.5 µM [34]: 74.7%
- viability at 0.25 µM [35]: 90.6%
- half-life [36]: 16.5 h
- Cmax [37]: 881 ng/mL
- Activity [38]: 67.2%
- Vd [39]: 3.99 L/kg
